The values that follow come from patent US20240337647A1, “IMPROVED METHODS FOR IDENTIFICATION OF FUNCTIONAL CELL STATES” (priority 2021, published 2024).

Like-named read-outs stand apart in the source and are kept apart here.

In data set [1] the test system is biomolecular targets known to be associated with common negative side effects of pharmaceuticals in humans. Description: In vitro secondary pharmacology panels, all targets of the two panels (31 dose-response + 78 single concentration). It counts as biochemical. Particulars: percentage of targets hit among all targets tested in the two secondary pharmacology panels. Here is the method: The purpose of this study was to assess the toxicity risk estimation provided by the Cell Health Screen relative to information from panels of in vitro pharmacology assays that were also designed to detect toxicity risk during pharmaceutical development. This study was performed with outside collaborators who have expertise in the use of the in vitro pharmacology assays. These in vitro assay panels detect whether chemical compounds directly interact with biomolecular targets known to be associated with toxic side effects in humans (mostly enzymes, cell surface receptors, and other proteins that participate in signaling pathways) (Pottel et al., 2020). […] As such, the interpretation process is somewhat subjective. In contrast, the Cell Health Screen uses a feature extraction and ML classifier strategy described above, to reduce all cellular phenotypic changes caused by a chemical compound to a single probability value, from 0 to 1. This is a quantitative toxicity risk estimation relative to a training set of compounds used to train the ML classifier. Therefore, comparing results from the Cell Health Screen to the in vitro pharmacology panels is a matter of comparing the trend in ML classifier probability values, across all 40 excipients, with their relative degrees of promiscuity and target interaction potency observed in the in vitro pharmacology panels.
(§1) For a detailed description of our collaborators' in vitro pharmacology assay panels, please see the publication by Pottel et al. (Pottel et al., 2020). Briefly, each in vitro assay focuses on one biomolecular target known to be associated with common negative side effects of pharmaceuticals in humans. These targets are generally enzymes, cell surface receptors, or other proteins that mediate cell signal transduction. In one assay panel, chemical compound interaction is assessed for 31 biomolecular targets in a dose-response fashion, which assesses compound-target interaction strength expressed as an IC50 and an activity range (unless no interaction happens).
Here we present two summarized versions of the study results. […] For the biological endpoints, the abbreviation key is as follows: CM=cell morphology, CMI=cell membrane integrity, ROS=reactive oxygen species, GTH=glutathione, NMI1=nuclear membrane integrity 1, CC=cell cycle, NMI2=nuclear membrane integrity 2, MMP=mitochondrial membrane potential. […] This is the percentage of all biomolecular targets for which an effect was observed, for each excipient. The THR value serves as an expression of an excipient's promiscuity with regard to binding biomolecular targets known to associate with toxic side effects in humans.

Another data set concerns HL60 cells. Description: AsedaSciences SYSTEMETRIC Cell Health Screen (multiparametric acute cell stress assay, flow cytometry, ML classifier). Particulars: probability (0 to 1) of assignment to the 'yes' high cell stress class; HL60, 4 hours, 5 nM-100 μM. From the text: The Cell Health Screen is a multiparametric acute cell stress assay, using a panel of fluorescent physiological reporting dyes, on an automated flow cytometry platform. Rather than simply producing dose-response curves for all individual biological readouts, features are generated by computing custom-defined distance functions between test and control wells. All test compounds are represented as feature vectors, after which the analysis algorithm employs a logistic regression model to classify test compounds relative to a training set. This machine learning (ML) approach integrates all measured readouts into a single predictive statistical model. […] This training set empirically covers the full range of possible phenotypes in the Cell Health Screen, from no-response to acute stress, with sufficient representation across the spectrum. Training set compounds were assigned to binary classes (“yes”=expectation of high cell stress or “positive” phenotype; “no”=no expectation of positive phenotype). This externally established ground-truth was based upon manually curated information from research literature and, where applicable, clinical trial results and commercial/regulatory histories.
For an unknown test compound, the ML classifier uses all the FC parameter features describing compound response, simultaneously, to predict the final assignment. This is achieved by calculating the probability of assigning that compound's screen phenotype to the “yes” class defined by the training set. By specifying the problem as a classification challenge, the data analysis pipeline assures that any apparent lack of coordinated change among biological readouts presents no interpretation challenge. All phenotypic data are treated simply as input features to a statistical model. In contrast, many conventional flow cytometry assays require strict mechanistic interpretation of every measured biological readout. often resulting in conflicting conclusions (e.g. if reactive oxygen species increase, but glutathione is unaffected, which should be “believed”?). The final probability score, or Cell Health Index, is a quantitative assessment of a multiparametric phenotype's similarity to a diverse set of known good and bad actors. Finally, choosing HL60 as our reporter cell line means that the screen is explicitly designed not to detect instances in which a parent compound only causes cellular toxicity via metabolites.
In a 384-well platform. HL60 cells are exposed to a 10-step, 3× dilution series of each test compound (5 nM-100 μM) for 4 hours at 37° C. with 5% CO2. Each dilution series is screened in duplicate, occupying a total of 20 wells, allowing 16 test compounds to be assayed on each plate. Each row contains one positive and one negative control well, for a total of 16 matched control pairs on each assay plate. Compound formatting, cell deposition, and dye application are performed robotically, so that final assay conditions comprise 100,000 cells in a 40 μl volume. After compound exposure, live cells are rapidly stained with a panel of fluorescent dyes that report physiological signatures of both mitochondrial dysfunction and gross cell stress. Fluorescence data are collected using automated flow cytometry with no gating. […] Well-specific flow cytometry data files, with an accompanying map of well contents, are moved to cloud infrastructure where the automated algorithm for quality control and ML classification is triggered. […]
A general note: Flow cytometry measures light scatter and fluorescence of single cells or particles in a stream.

For a further data set, the system named is 31 biomolecular targets. Description: In vitro pharmacology panel of 31 biomolecular targets, dose-response. It counts as biochemical. To be noted: for IC50: read-out: Avg potency. How it is done:
as §1
These last two features are derived from the first panel of 31 biomolecular targets, which are assayed using a concentration series of each excipient to produce a dose-response curve.

Where [2] appears, read: average concentration of the IC50 values from dose-response results, panel of 31 targets.
The mark [3] stands for this setting: first panel of 31 biomolecular targets, concentration series.

Turning to `CC(C)(C)CC(C)(C)c1ccc(OCCOCC[N+](C)(C)Cc2ccccc2)cc1` [Benzethonium chloride], the “Overall target hit rate” value in data set [1] was determined as 51%.

As to `Cc1cc(O)cc(C)c1Cl` [Chloroxylenol, 4-chloro-3,5-dimethylphenol], the “CHI score (Cell Health Index)” value in the data set with HL60 cells is 0.349. Further, the “Overall target hit rate” value in data set [1] is given as 6%. The IC50 with 31 biomolecular targets (setting [2]) amounted to 12 µM. Besides, the Activity range with 31 biomolecular targets (setting [3]) lay in the range of 10 to 14 µM.

In the case of `O=C([O-])c1c(Cl)c(Cl)c(Cl)c(Cl)c1-c1c2cc(Br)c(=O)c(Br)c-2oc2c(Br)c([O-])c(Br)cc12.[Na+].[Na+]` [D&C Red #28, Phloxine B], the “CHI score (Cell Health Index)” value with HL60 cells is on record as 0.637. Besides, the “Overall target hit rate” value in data set [1] stood at 55%. The molecule also yielded an Activity range with 31 biomolecular targets (setting [3]) of 0.13 to 28 µM. Besides, the IC50 in the data set on 31 biomolecular targets came to 10 µM.

With `O=C1OC2(c3ccccc31)c1cc(I)c(O)c(I)c1Oc1c2cc(I)c(O)c1I` [FD&C Red #3, Erythrosine extra bluish], the “Overall target hit rate” value in data set [1] is listed as 48%. In addition, the IC50 with 31 biomolecular targets (setting [2]) worked out at 5.7 µM. For the same molecule, the Activity range in the data set on 31 biomolecular targets (setting [3]) lay within 0.09 to 25 µM.

Take `CN(C)c1ccc2nc3ccc(=[N+](C)C)cc-3sc2c1` [Methylene blue hydrate]: in data set [1], the “Overall target hit rate” value is listed as 48%. Further, the IC50 in the data set on 31 biomolecular targets (setting [2]) was 6.5 µM. In the data set with 31 biomolecular targets (setting [3]), the Activity range was 0.04 to 24 µM.

For `CC(=O)[O-].[Hg+][c]1ccccc1` [Phenylmercuric acetate], in the data set with HL60 cells, the “CHI score (Cell Health Index)” value is given as 0.955. Moreover, the “Overall target hit rate” value in data set [1] is 58%. In the data set on 31 biomolecular targets, the Activity range lay within 0.02 to 22 µM and the IC50 is 5 µM.

`CCCOC(=O)c1cc(O)c(O)c(O)c1` [Propyl gallate]: the “Overall target hit rate” value in data set [1] is on record as 3%. Further, the IC50 in the data set with 31 biomolecular targets (setting [2]) came to 7.2 µM. In addition, the Activity range in the data set with 31 biomolecular targets (setting [3]) was 0.015 to 7.2 µM.

`CCCOC(=O)c1ccc(O)cc1` [Propylparaben]: the “Overall target hit rate” value in data set [1] was determined as 3%. The IC50 in the data set on 31 biomolecular targets (setting [2]) is 19.3 µM. In the data set with 31 biomolecular targets (setting [3]), this molecule displayed an Activity range of 11 to 24 µM.

As to `C[CH2][Hg][S]c1ccccc1C(=O)[O-].[Na+]` [Thimerosal], the “CHI score (Cell Health Index)” value in the data set with HL60 cells turned out to be 0.936. In addition, the “Overall target hit rate” value in data set [1] turned out to be 17%. In the data set with 31 biomolecular targets, the Activity range lay within 0.32 to 30 µM and the IC50 came out at 15 µM.

With Polysorbate 80, the “CHI score (Cell Health Index)” value in the data set on HL60 cells amounted to 0.422. In addition, the “Overall target hit rate” value in data set [1] is 13%. Moreover, in the data set on 31 biomolecular targets (setting [3]), the Activity range was 1.0 to 21 µM. Moreover, in the data set on 31 biomolecular targets, the IC50 amounted to 10.7 µM.
